Common to all, as to type: cell-based
Assay [1] concerns Panc02 and SKOV3 cells. The assay is described as follows: Lactate production inhibition assay (FIGS. 8C and 8D). The conditions noted are these: 48 hours treatment, 1.5 to 10000 nM. The text has this: (§1) Recombinant Lactate Dehydrogenase A (LDHA) was used to convert lactate in tissue culture supernatants to pyruvate, with the concomitant reduction of NAD^+ to NADH. The electron acceptor 1-methoxyphenazine methosulfate (MPMS) was then reduced by the generated NADH, thereby regenerating NAD+. Reduced 1-methoxyphenazine methosulfate is used in turn to reduce Water Soluble Tetrazolium 8 (WST8) to an orange WST8 formazan product. The assay is adapted from the publication “Application of WST-8 based colorimetric NAD(P)H detection for quantitative dehydrogenase assays” described in Chamchoy et al., BMC Biochemistry (2019) 20(1):4.
Cells were plated at 4,000 per well in 96-well plate in a medium of high glucose DMEM (PAN) supplemented with 10% FBS (PAN), 2 mM glutamine-alanine (PAN), 2 mM pyruvate (Sigma) and 10 mL/L penicillin-streptomycin (PAN) and grown at 37° C. in 0.5% O2, 5% CO2 and 75% humidity. For hypoxia, cells were grown and treated in the Whitley H35 Hypoxystation (Don Whitley Scientific) at 37° C. in 0.5% O2, 5% CO2 and 75% humidity. The next day, cells were induced with test compounds (FIG. 2: compounds of examples 3/16, 3/8, 10 at 10000, 3333, 1111, 370, 123, 41, 14, 5 and 1.5 nM; FIG. 7: compounds of examples 3/16, 3/8, 10 at 41, 14, 4.6 nM and Phenformin at 100, 50, 25, 12.5, 6.25 μM; FIGS. 8C and 8D: compounds of example 3/16, 3/8, 10, 3/19, 30 and 30/2 at 10000, 3333, 1111, 370, 123, 41, 14, 5 and 1.5 nM), as well as with vehicle (DMSO) only, for 48 hours. After this time, the medium was removed from the cells to measure extracellular lactate. To detect extracellular lactate, cell supernatants are diluted 1:5 in assay buffer (0.2 M tris, pH 8.2) by adding 10 μl cell supernatant+40 μl buffer in a 96-well plate. Assay substrate mix is prepared by adding NAD+ (3.75 mM), WST-8 (0.9 mM), MPMS (10 mM) and recombinant LDHA, expressed in E. coli as an N-terminal hexahistidine tagged fusion protein, is added to a final concentration of 0.8 μg/ml in assay buffer. Thereafter, 80 μl of substrate mix is added to 20 μl of diluted cell supernatant in a 96-well flat-bottomed plate and the absorbance at 460 nm determined at one minute intervals over a 30 minute period. A standard curve of known lactate concentrations of 10, 8, 6, 4, 1, 0.5 and 0.25 mM was constructed for each assay plate.

Assay [2] concerns HeLa cells. Put plainly: Lactate production inhibition assay, co-treatment with phenformin (FIG. 7). The conditions noted are these: 48 hours co-treatment of phenformin (6.25-100 μM) with compound at 41, 14, 4.6 nM.
Text: as §1
Cells were plated at 4,000 per well in 96-well plate in a medium of high glucose DMEM (PAN) supplemented with 10% FBS (PAN), 2 mM glutamine-alanine (PAN), 2 mM pyruvate (Sigma) and 10 mL/L penicillin-streptomycin (PAN) and grown at 37° C. in 0.5% O2, 5% CO2 and 75% humidity. For hypoxia, cells were grown and treated in the Whitley H35 Hypoxystation (Don Whitley Scientific) at 37° C. in 0.5% O2, 5% CO2 and 75% humidity. […] Thereafter, 80 μl of substrate mix is added to 20 μl of diluted cell supernatant in a 96-well flat-bottomed plate and the absorbance at 460 nm determined at one minute intervals over a 30 minute period. […]

In assay [3] the test system is ER stress markers CHAC and CHOP/DDIT3. Put plainly: Gene expression analysis by qPCR (FIG. 8E-8AB). The note with it: Panc02 and SKOV3 cells, 10 nM, 0.5, 1, 2 and 4 hours. Here is the method: Cells were plated at 40,000 cells per ml in medium of high glucose DMEM (PAN) supplemented with 10% FBS (PAN), 2 mM glutamine-alanine (PAN), 2 mM pyruvate (Sigma) and 10 mL/L penicillin-streptomycin (PAN), and grown at 37° C. in 0.5% O2, 5% CO2 and 75% humidity. Next day, cells were induced with test compounds (FIG. 3: compounds of example 3/16, 3/8, 10 at 10 nM; FIG. 8E-8AB: compounds of example 3/16, 3/8, 10, 3/19, 30 and 30/2 at 10 nM) 0.5, 1, 2 and 4 hours, as well as with vehicle (DMSO) only. After this time, the cells were lysed according to protocol (Promega, SV 96 Total RNA Isolation System, #Z3505). After transferring the lysate to a 96-well-RNA binding plate, RNA was isolated and put at approx. 1 μg into cDNA synthesis using LunaScript RT SuperMix Kit (NEB, #E3010). The resulting cDNA was diluted 1:5 and used for qPCR Analysis (Taqman). Luna Universal Probe qPCR Master Mix (NEB, #M3004) is used as 2× reaction mix to which the diluted cDNA is added. The qPCR analysis was performed using QuantStudio™ 6 Flex real-time PCR systems (Thermo Fisher Scientific).
A set of primers plus probe for each gene of interest was purchased at IDT (Integrated DNA Technologies).
On the technique in general: Quantitative PCR measures a nucleic acid by following its amplification.

The test system of assay [4] is HeLa cell line expressing GFP-LC3. The assay is described as follows: Determination of autophagic flux. The conditions noted are these: HeLa GFP-LC3 reporter cells, 24 hours of treatment, flow cytometry, FIG. 6. The source says:
A HeLa cell line stably expressing an artificial protein construct consisting of Green Fluorescent Protein (GFP) as an N-terminal fusion to the human full-length LC3 protein, placed in front of a Red Fluorescent Protein (RFP) as an N terminal fusion to human LC3 lacking its C-terminal Glycine residue (LC3DG), was used to determine autophagic flux (Kaizuka et al., Mol. Cell (2016) 17 835-849) This construct is cleaved in cells by ATG4 at the C-terminus of the full-length LC3 protein, whereupon the GFP-LC3 fragment becomes conjugated to phosphatidyl ethanolamine. The RFP-LC3DG cannot be lipidated, and can be used as an internal reference to produce ratiometric values reporting autophagic flux. The lipidated GFP-LC3 protein becomes incorporated into the membrane of autophagosomes, and upon fusion with lysosomes, is degraded. Consequently, cells with a high autophagic flux have less GFP-LC3, whereas a low autophagic flux results in a relatively higher intracellular amount of GFP-LC3.
Reporter cells were grown as sub-confluent cultures and test compounds were applied at various concentrations. Thapsigargin, a known inducer of autophagy, was used as a positive control. After 24 hours of treatment, a single-cell suspension was prepared by trypsinization, and the GFP fluorescence determined by flow cytometry. A minimum of 10,000 single cells were evaluated for each condition.
On the technique in general: A flow cytometer gives signals particle by particle.

Regarding `O=C(Nc1ccc(F)c(NC(=O)c2cc3ccc(OCCCN4CCCC4)cc3s2)c1)c1ccc2c(c1)OCCO2` [3/8], the lactate levels result in assay [1] is recorded as “dose-dependent downregulation”; in assay [2] it was “downregulation”. The “ER stress markers CHAC and CHOP/DDIT3” value in assay [3] is reported as “time-dependent upregulation”. For the same compound, the autophagic flux result in assay [4] is “significantly enhance”.

In the case of `Cc1ccc(NC(=O)c2ccc3c(c2)OCCO3)cc1NC(=O)c1cc2cccnc2s1` [3/16], the figures for the lactate levels result in assay [1] and in assay [2] were “dose-dependent downregulation” and “downregulation”, respectively. Moreover, the “ER stress markers CHAC and CHOP/DDIT3” value in assay [3] was “time-dependent upregulation”. The autophagic flux entry in assay [4] is reported as “significantly enhance”.

The values above are taken from US20260028334A1, “N-(3-(BENZO[B]THIOPHENE-2-CARBOXAMIDO)-PHENYL)-2,3-DIHYDROBENZO[B][1,4]DIOXINE-6-CARBOXAMIDE DERIVATIVES AND RELATED COMPOUNDS AS LACTATE/ATP PRODUCTION INHIBITORS FOR THE TREATMENT OF CANCER” (WMT Aktiengesellschaft, priority 2022, published 2026).
